Measurements reported in PubChem BioAssay AID330 (DTP/NCI, 2004).
“And” between values parts separate entries of the source, which are not always exact repeats. Equal entries are not always repeated. Toxic doses and inconclusive results are not listed. The calls were made as follows: active = survival T/C of 150% or more; inactive = T/C below 125% in these data.

Tested on: P388 leukemia ip, CD2F1 mice, survival T/C
Test: NCI In Vivo Anticancer Drug Screen. Data for tumor model P388 Leukemia (intraperitoneal) in CD2F1 (CDF1) mice
Settings: endpoint: median survival time, higher = longer survival
Summary of the method: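 Mice carrying the transplanted tumor received test compound or vehicle. Survival was recorded in each group, and the value is the treated-group measurement divided by that of the vehicle-treated control group.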

[1] = dose: 60.0 mg/kg/injection, schedule: Q01DX005 (ip), vehicle: saline with Tween-80
[2] = dose: 120.0 mg/kg/injection, schedule: Q01DX005 (ip), vehicle: saline with Tween-80
[3] = dose: 240.0 mg/kg/injection, schedule: Q01DX005 (ip), vehicle: saline with Tween-80
[4] = dose: 25.0 mg/kg/injection, schedule: Q01DX009 (ip), vehicle: saline
[5] = dose: 50.0 mg/kg/injection, schedule: Q01DX009 (ip), vehicle: saline
[6] = dose: 100.0 mg/kg/injection, schedule: Q01DX009 (ip), vehicle: saline
[7] = dose: 25.0 mg/kg/injection, schedule: Q01DX009 (ip), vehicle: saline with Tween-80
[8] = dose: 50.0 mg/kg/injection, schedule: Q01DX009 (ip), vehicle: saline with Tween-80
[9] = dose: 100.0 mg/kg/injection, schedule: Q01DX009 (ip), vehicle: saline with Tween-80
[10] = dose: 200.0 mg/kg/injection, schedule: Q01DX009 (ip), vehicle: saline with Tween-80
[11] = dose: 60.0 mg/kg/injection, schedule: Q01DX005 (ip), vehicle: Klucel (hydroxypropylcellulose) (HPC)
[12] = dose: 120.0 mg/kg/injection, schedule: Q01DX005 (ip), vehicle: Klucel (hydroxypropylcellulose) (HPC)
[13] = dose: 240.0 mg/kg/injection, schedule: Q01DX005 (ip), vehicle: Klucel (hydroxypropylcellulose) (HPC)
[14] = dose: 100.0 mg/kg/injection, schedule: Q01DX001 (ip), vehicle: Klucel (hydroxypropylcellulose) (HPC)
[15] = dose: 200.0 mg/kg/injection, schedule: Q01DX001 (ip), vehicle: Klucel (hydroxypropylcellulose) (HPC)

Measured: T/C

COC(=O)C(=O)c1c(-c2ccc(O)c(OC)c2)[nH]c2[nH]n(-c3ccccc3)c(=O)c2c1=O
inactive: [1] 100 % of control | [2] 109 % of control | [3] 88 % of control

C=C1C(=O)O[C@H]2[C@H]1[C@H](OC(=O)/C(C)=C\C)CC(=C)[C@@H]1[C@H](O)[C@H]3O[C@@]3(C)[C@@]12O
inactive: dose: 6.25 mg/kg/injection, schedule: Q01DX009 (ip), vehicle: saline 102 % of control | dose: 12.5 mg/kg/injection, schedule: Q01DX009 (ip), vehicle: saline 106 % of control and 111 % of control | [4] 112 % of control and 113 % of control | [5] 121 % of control | [6] 109 % of control

CSC1C(=O)Nc2ccc([N+](=O)[O-])cc21 (centres undefined)
inactive: [7] 96 % of control | [8] 105 % of control | [9] 113 % of control

COc1cc(OC)cc(C2SCC(=O)N2c2nncs2)c1 (centres undefined)
inactive: [1] 107 % of control | [2] 98 % of control | [3] 93 % of control

Cc1oc2ccccc2c(=O)c1CN(CCO)CCO
inactive: dose: 60.0 mg/kg/injection, schedule: Q01DX005 (ip), vehicle: saline 95 % of control | dose: 120.0 mg/kg/injection, schedule: Q01DX005 (ip), vehicle: saline 101 % of control

O=[N+]([O-])c1ccc(SC2=NCCN2Cc2ccccc2)c(Cl)c1
inactive: [8] 88 % of control | [9] 101 % of control | [10] 94 % of control

Cc1cc(C)nc(C2=C(O)c3ccccc3C2=O)c1
inactive: [11] 106 % of control | [12] 99 % of control | [13] 87 % of control and 96 % of control

O=S(=O)(N/N=C/c1ccccc1)c1ccccc1
inactive: dose: 25.0 mg/kg/injection, schedule: Q01DX009 (ip), vehicle: Klucel (hydroxypropylcellulose) (HPC) 106 % of control | dose: 50.0 mg/kg/injection, schedule: Q01DX009 (ip), vehicle: Klucel (hydroxypropylcellulose) (HPC) 97 % of control | dose: 100.0 mg/kg/injection, schedule: Q01DX009 (ip), vehicle: Klucel (hydroxypropylcellulose) (HPC) 99 % of control | dose: 200.0 mg/kg/injection, schedule: Q01DX009 (ip), vehicle: Klucel (hydroxypropylcellulose) (HPC) 106 % of control

Cc1ccc(/C=C2/N=C([Se])N(C)C2=O)cc1
inactive: dose: 15.0 mg/kg/injection, schedule: Q01DX005 (ip), vehicle: saline with Tween-80 100 % of control | dose: 30.0 mg/kg/injection, schedule: Q01DX005 (ip), vehicle: saline with Tween-80 95 % of control | [1] 101 % of control | [2] 86 % of control

CC1CCC23COC(=O)C2=CCCC3C12CC(c1ccoc1)OC2=O (centres undefined)
inactive: dose: 0.03 mg/kg/injection, schedule: Q01DX009 (ip), vehicle: saline 107 % of control | dose: 0.06 mg/kg/injection, schedule: Q01DX009 (ip), vehicle: saline 104 % of control | dose: 0.12 mg/kg/injection, schedule: Q01DX009 (ip), vehicle: saline 107 % of control | dose: 0.24 mg/kg/injection, schedule: Q01DX009 (ip), vehicle: saline 103 % of control | dose: 0.5 mg/kg/injection, schedule: Q01DX009 (ip), vehicle: Klucel (hydroxypropylcellulose) (HPC) 96 % of control | dose: 1.0 mg/kg/injection, schedule: Q01DX009 (ip), vehicle: Klucel (hydroxypropylcellulose) (HPC) 96 % of control | dose: 2.0 mg/kg/injection, schedule: Q01DX009 (ip), vehicle: Klucel (hydroxypropylcellulose) (HPC) 98 % of control

CN1CCc2cc3c4cc2C1Cc1ccc(O)c(c1)Oc1ccc(cc1)CC1c2c(cc(O)c(c2O4)O3)CCN1C (centres undefined)
inactive: dose: 0.25 mg/kg/injection, schedule: Q01DX009 (ip), vehicle: saline 103 % of control | dose: 0.5 mg/kg/injection, schedule: Q01DX009 (ip), vehicle: saline 110 % of control | dose: 1.0 mg/kg/injection, schedule: Q01DX009 (ip), vehicle: saline 103 % of control | dose: 2.0 mg/kg/injection, schedule: Q01DX009 (ip), vehicle: saline 100 % of control | dose: 4.0 mg/kg/injection, schedule: Q01DX009 (ip), vehicle: saline 94 % of control

COc1cc(OC)c(OC)cc1/C=C1/N=C(c2ccccc2)OC1=O
inactive: [8] 99 % of control | [9] 92 % of control | [10] 93 % of control

CC(=O)Nc1cccc2c(C)cc(=O)[nH]c12
inactive: [14] 91 % of control | [15] 97 % of control | dose: 400.0 mg/kg/injection, schedule: Q01DX001 (ip), vehicle: Klucel (hydroxypropylcellulose) (HPC) 98 % of control

C[C@H]1C(=O)CCC2[C@]3(C)CCC4(CO)[C@@H]5CC(C)(C)C(=O)C[C@]5(C)CC[C@]4(C)C3CC[C@@]21C (some centres undefined)
inactive: dose: 7.75 mg/kg/injection, schedule: Q01DX005 (ip), vehicle: Klucel (hydroxypropylcellulose) (HPC) 98 % of control | dose: 15.5 mg/kg/injection, schedule: Q01DX005 (ip), vehicle: Klucel (hydroxypropylcellulose) (HPC) 91 % of control | dose: 31.0 mg/kg/injection, schedule: Q01DX005 (ip), vehicle: Klucel (hydroxypropylcellulose) (HPC) 89 % of control

C=CN=NNc1ccc(Cl)cc1
inactive: dose: 100.0 mg/kg/injection, schedule: Q04DX003 (ip), vehicle: saline + Tween-80 + alcohol 109 % of control | dose: 200.0 mg/kg/injection, schedule: Q04DX003 (ip), vehicle: saline + Tween-80 + alcohol 108 % of control | dose: 400.0 mg/kg/injection, schedule: Q04DX003 (ip), vehicle: saline + Tween-80 + alcohol 117 % of control

COc1ccc(C2c3cc4c(cc3OC(C)(O)C2C)OCO4)cc1 (centres undefined)
inactive: [11] 95 % of control | [12] 98 % of control | [13] 93 % of control

CC/C(=C1/C=C(O)C(=O)C=C1OC)c1ccc(OC)cc1
inactive: dose: 2.5 mg/kg/injection, schedule: Q01DX009 (ip), vehicle: saline + alcohol 100 % of control | dose: 5.0 mg/kg/injection, schedule: Q01DX009 (ip), vehicle: saline + alcohol 101 % of control | dose: 10.0 mg/kg/injection, schedule: Q01DX009 (ip), vehicle: saline + alcohol 103 % of control

O=C(CCl)NNc1cccc(Cl)n1
inactive: dose: 50.0 mg/kg/injection, schedule: Q01DX001 (ip), vehicle: Klucel (hydroxypropylcellulose) (HPC) 98 % of control | [14] 98 % of control | [15] 93 % of control

COc1ccc(CSC(=S)Nc2ccc(Cl)c(C(F)(F)F)c2)cc1
inactive: [7] 95 % of control | [4] 104 % of control | [8] 98 % of control | [5] 109 % of control | dose: 50.0 mg/kg/injection, schedule: Q01DX009 (ip), vehicle: suspension in saline 106 % of control | [9] 100 % of control | [6] 104 % of control | dose: 100.0 mg/kg/injection, schedule: Q01DX009 (ip), vehicle: suspension in saline 124 % of control | [10] 91 % of control | dose: 200.0 mg/kg/injection, schedule: Q01DX009 (ip), vehicle: suspension in saline 124 % of control

CN(CC#CCN(C)C1=NC(=O)CC1)C1=NC(=O)CC1
inactive: [11] 92 % of control | [12] 94 % of control | [13] 100 % of control

O=[N+]([O-])C(Cc1ccccc1)Cc1ccccc1
inactive: dose: 50.0 mg/kg/injection, schedule: Q01DX005 (ip), vehicle: saline with Tween-80 98 % of control | dose: 100.0 mg/kg/injection, schedule: Q01DX005 (ip), vehicle: saline with Tween-80 103 % of control | dose: 200.0 mg/kg/injection, schedule: Q01DX005 (ip), vehicle: saline with Tween-80 97 % of control
